Source: the supplement of paper PMC4314810
± gives the standard deviation of the averaged measurements.

Test system: MCF7
Experiment: HRG-induced Akt activation (dPAkt = log2 pAkt/Akt HRG-stimulated minus log2 pAkt/Akt basal) (log2 ratio difference); higher = stronger HRG-induced Akt(T308) phosphorylation
Details: miRNA mimic concentration 10 nM; time after transfection 72 h; heregulin 10 ng/ml; stimulation time 1 h
Outline: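 MCF7 cells ([…], 96-well plates) carrying one of 879 miRNA mimics, transfected at 10 nM final with Lipofectamine RNAiMax in two biological replicates, were stimulated after 72 h with 10 ng/ml heregulin-beta1 for 1 h or left unstimulated. Phospho-Akt(T308) and total Akt in cells fixed with 4% PFA were read by In-Cell Western on an Odyssey and corrected for column-wise fixation decay to give log2(pAkt/Akt). Heregulin-induced Akt activation is the replicate mean of stimulated minus unstimulated ratios.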

Sequence	HRG-induced Akt activation (log2)
ACUGGGGGCUUUCGGGCUCUGCGU	1.6 ± 0.11
ACUGUAGUAUGGGCACUUCCAG	1.46 ± 0.29
ACUGUUGCUAAUAUGCAACUCU	0.931 ± 0.72
ACUUAAACGUGGAUGUACUUGCU	1.93 ± 0.26
ACUUACAGACAAGAGCCUUGCUC	1.68 ± 0.16
ACUUCACCUGGUCCACUAGCCGU	1.3 ± 0.29
ACUUGGGCACUGAAACAAUGUCC	1.5 ± 0.025
ACUUGUAUGCUAGCUCAGGUAG	1.13 ± 0.012
ACUUUAACAUGGAAGUGCUUUC	1.17 ± 0.09
ACUUUAACAUGGAGGCACUUGC	1.41 ± 0.029
AGAAGGAAAUUGAAUUCAUUUA	2.39 ± 0.29
AGAAUUGUGGCUGGACAUCUGU	1.55 ± 0.022
AGACCAUGGGUUCUCAUUGU	1.18 ± 0.43
AGACCCUGGUCUGCACUCUAUC	1.82 ± 0.41
AGACCUGGCCCAGACCUCAGC	1.51 ± 0.39
AGACUUCCCAUUUGAAGGUGGC	1.52 ± 0.18
AGAGAAGAAGAUCAGCCUGCA	1.08 ± 0.5
AGAGCUUAGCUGAUUGGUGAAC	1.58 ± 0.27
AGAGGAUACCCUUUGUAUGUU	1.23 ± 0.53
AGAGGCUGGCCGUGAUGAAUUC	1.48 ± 0.024
AGAGGUAGUAGGUUGCAUAGUU	1.08 ± 0.21
AGAGGUAUAGGGCAUGGGAA	1.88 ± 0.23
AGAGGUUGCCCUUGGUGAAUUC	1.6 ± 0.19
AGAGUCUUGUGAUGUCUUGC	2.38 ± 0.067

Sequence	HRG-induced Akt activation (log2)
AGAGUUGAGUCUGGACGUCCCG	1.98 ± 0.027
AGAUCAGAAGGUGAUUGUGGCU	1.56 ± 0.3
AGAUCGACCGUGUUAUAUUCGC	2.02 ± 0.14
AGCAGAAGCAGGGAGGUUCUCCCA	1.55 ± 0.054
AGCAGCAUUGUACAGGGCUAUCA	1.35 ± 0.26
AGCAGCAUUGUACAGGGCUAUGA	1.45 ± 0.015
AGCCUGAUUAAACACAUGCUCUGA	1.23 ± 0.11
AGCCUGGAAGCUGGAGCCUGCAGU	1.35 ± 0.14
AGCUACAUCUGGCUACUGGGU	1.48 ± 0.25
AGCUACAUUGUCUGCUGGGUUUC	1.72 ± 0.17
AGCUCGGUCUGAGGCCCCUCAGU	0.753 ± 0.54
AGCUGGUGUUGUGAAUCAGGCCG	1.87 ± 0.075
AGCUGUCUGAAAAUGUCUU	1.08 ± 0.3
AGCUUCUUUACAGUGCUGCCUUG	1.68 ± 0.2
AGGAAGCCCUGGAGGGGCUGGAG	1.1 ± 0.6
AGGAAUGUUCCUUCUUUGCC	1.91 ± 0.039
AGGACCUGCGGGACAAGAUUCUU	1.6 ± 0.091
AGGAGGCAGCGCUCUCAGGAC	1.54 ± 0.61
AGGAUGAGCAAAGAAAGUAGAUU	1.13 ± 0.25
AGGCAAGAUGCUGGCAUAGCU	1.18 ± 0.13
AGGCACCAGCCAGGCAUUGCUCAGC	1.51 ± 0.2
AGGCACGGUGUCAGCAGGC	1.2 ± 0.26
AGGCAGCGGGGUGUAGUGGAUA	1.58 ± 0.27
AGGCAGUGUAGUUAGCUGAUUGC	2.22 ± 0.041

Sequence	HRG-induced Akt activation (log2)
AGGCAGUGUAUUGUUAGCUGGC	1.91 ± 0.036
AGGCAUUGACUUCUCACUAGCU	1.66 ± 0.32
AGGCGGAGACUUGGGCAAUUG	2.43 ± 0.29
AGGCGGGGCGCCGCGGGACCGC	1.22 ± 0.12
AGGCUGCGGAAUUCAGGAC	1.56 ± 0.23
AGGGACGGGACGCGGUGCAGUG	1.15 ± 0.12
AGGGACUUUCAGGGGCAGCUGU	1.48 ± 0.18
AGGGAGGGACGGGGGCUGUGC	1.89 ± 0.16
AGGGAUCGCGGGCGGGUGGCGGCCU	1.03 ± 0.13
AGGGCCCCCCCUCAAUCCUGU	1.95 ± 0.39
AGGGCUUAGCUGCUUGUGAGCA	1.75 ± 0.56
AGGGGCUGGCUUUCCUCUGGUC	1.57 ± 0.17
AGGGGGAAAGUUCUAUAGUCC	1.2 ± 0.07
AGGGGUGCUAUCUGUGAUUGA	1.68 ± 0.19
AGGGGUGGUGUUGGGACAGCUCCGU	2.91 ± 0.23
AGGGUAAGCUGAACCUCUGAU	1.51 ± 0.17
AGGGUGUUUCUCUCAUCUCU	2.04 ± 0.21
AGGUGGUCCGUGGCGCGUUCGC	2.93 ± 0.32
AGGUUACCCGAGCAACUUUGCAU	0.732 ± 0.16
AGGUUGACAUACGUUUCCC	1.43 ± 0.13
AGGUUGGGAUCGGUUGCAAUGCU	1.59 ± 0.021
AGGUUGUCCGUGGUGAGUUCGCA	1.02 ± 0.18
AGUAUGUUCUUCCAGGACAGAAC	1.83 ± 0.087
AGUAUUCUGUACCAGGGAAGGU	1.96 ± 0.043

Sequence	HRG-induced Akt activation (log2)
AGUCAUUGGAGGGUUUGAGCAG	1.86 ± 0.057
AGUGAAUGAUGGGUUCUGACC	1.879 ± 0.002
AGUGCCUGAGGGAGUAAGAGCCC	1.72 ± 0.04
AGUGGGGAACCCUUCCAUGAGG	1.94 ± 0.25
AGUGUGGCUUUCUUAGAGC	0.799 ± 1.1
AGUUAAUGAAUCCUGGAAAGU	1.46 ± 0.25
AGUUAGGAUUAGGUCGUGGAA	1 ± 0.39
AGUUCUUCAGUGGCAAGCUUUA	0.966 ± 0.66
AGUUUUGCAGGUUUGCAUCCAGC	1.36 ± 0.22
AGUUUUGCAGGUUUGCAUUUCA	1.13 ± 0.15
AGUUUUGCAUAGUUGCACUACA	1.37 ± 0.032
AUAAAGCUAGAUAACCGAAAGU	2.04 ± 0.33
AUAAGACGAACAAAAGGUUUGU	1.75 ± 0.072
AUAAGACGAGCAAAAAGCUUGU	1.73 ± 0.05
AUAAUACAUGGUUAACCUCUUU	1.2 ± 0.064
AUAUAAUACAACCUGCUAAGUG	0.999 ± 0.15
AUAUAUGAUGACUUAGCUUUU	2.03 ± 0.027
AUAUUACCAUUAGCUCAUCUUU	1.42 ± 0.089
AUCAACAGACAUUAAUUGGGCGC	2.3 ± 0.38
AUCACACAAAGGCAACUUUUGU	1.78 ± 0.33
AUCACAUUGCCAGGGAUUACC	1.54 ± 0.03
AUCACAUUGCCAGGGAUUUCC	1.12 ± 0.24
AUCAUAGAGGAAAAUCCACGU	2.13 ± 0.46
AUCAUAGAGGAAAAUCCAUGUU	1.64 ± 1

Sequence	HRG-induced Akt activation (log2)
AUCAUGAUGGGCUCCUCGGUGU	1.41 ± 0.22
AUCCCACCUCUGCCACCA	1.2 ± 0.059
AUCCCUUGCAGGGGCUGUUGGGU	1.02 ± 0.69
AUCCGCGCUCUGACUCUCUGCC	1.53 ± 0.14
AUCCUUGCUAUCUGGGUGCUA	1.94 ± 0.15
AUCGCUGCGGUUGCGAGCGCUGU	1.63 ± 0.063
AUCGGGAAUGUCGUGUCCGCCC	1.6 ± 0.039
AUCGUGCAUCCCUUUAGAGUGU	1.54 ± 0.1
AUCGUGCAUCCUUUUAGAGUGU	1.47 ± 0.099
AUCUGGAGGUAAGAAGCACUUU	1.83 ± 0.33
AUGACCUAUGAAUUGACAGAC	1.43 ± 0.063
AUGAUCCAGGAACCUGCCUCU	2.49 ± 0.056
AUGCACCUGGGCAAGGAUUCUG	1.77 ± 0.18
AUGCUGACAUAUUUACUAGAGG	0.706 ± 0.25
AUGGAGAUAGAUAUAGAAAU	1.51 ± 0.11
AUGGAUAAGGCUUUGGCUU	1.72 ± 0.027
AUGGGUGAAUUUGUAGAAGGAU	1.81 ± 0.12
AUGGUACCCUGGCAUACUGAGU	1.62 ± 0.59
AUGGUUCCGUCAAGCACCAUGG	1.87 ± 0.22
AUGUAGGGCUAAAAGCCAUGGG	1.01 ± 0.24
AUGUAUAAAUGUAUACACAC	1.42 ± 0.5
AUGUAUGUGUGCAUGUGCAUG	1.62 ± 0.4
AUUCCUAGAAAUUGUUCAUA	1.18 ± 0.4
AUUCUAAUUUCUCCACGUCUUU	1.44 ± 0.29

Sequence	HRG-induced Akt activation (log2)
AUUCUGCAUUUUUAGCAAGUUC	1.8 ± 0.078
AUUGACACUUCUGUGAGUAGA	1.55 ± 0.046
AUUGAUCAUCGACACUUCGAACGCAAU	1.383 ± 0.0097
AUUUGUGCUUGGCUCUGUCAC	0.917 ± 0.31
CAAAAACCACAGUUUCUUUUGC	0.997 ± 0.23
CAAAAAUCUCAAUUACUUUUGC	2.04 ± 0.028
CAAAACGUGAGGCGCUGCUAU	1.27 ± 0.087
CAAAACUGGCAAUUACUUUUGC	1.5 ± 0.052
CAAAAGUAAUUGUGGAUUUUGU	1.5 ± 0.065
CAAACCACACUGUGGUGUUAGA	1.09 ± 0.76
CAAAGAAUUCUCCUUUUGGGCU	1.74 ± 0.013
CAAAGAGGAAGGUCCCAUUAC	2.01 ± 0.3
CAAAGCGCUCCCCUUUAGAGGU	1.02 ± 0.045
CAAAGCGCUUCCCUUUGGAGC	1.259 ± 0.0069
CAAAGCGCUUCUCUUUAGAGUGU	0.7 ± 0.83
CAAAGGUAUUUGUGGUUUUUG	1.74 ± 0.066
CAAAGUGCCUCCCUUUAGAGUG	0.831 ± 0.84
CAAAGUGCUCAUAGUGCAGGUAG	1.34 ± 0.39
CAAAGUGCUGUUCGUGCAGGUAG	1.46 ± 0.35
CAAAGUGCUUACAGUGCAGGUAG	1.23 ± 0.17
